Assays:
[1] = tested on: A-549 (epithelial cancer cell line); experiment: Antiproliferative MTT assay, A-549; format: cell-based; conditions: Homo sapiens, A549; A-549, MTT; read-out: Antiproliferative activity IC50 ± SEM, A-549
Method: (§1) The MTT assay was performed using various cell lines in accordance with previously reported procedures[28]^,[29] to investigate the antiproliferative potential of VIa-k. Refer to Appendix A. […]
(§2) added (in 200 μL medium to yield a final concentration of 0.1% v/v) to the wells of plates. A single compound was designated with four wells followed by incubation of […]
(§3) After incubation, medium was removed completely from the plates followed by addition of MTT (0.4 mg/mL in medium) to each well and subsequent incubation of plates for 3h. MTT (along with the medium) was removed and DMSO (150μL) was added to each well of the culture plates, followed by vortexing and subsequent measurement of absorbance (at 540 nm) using microplate reader. The data are shown as percentage inhibition of proliferation in comparison with controls containing 4.2.1.2. Assay for antiproliferative effect […]
(§4) The percentage cytotoxicity of compounds was calculated using the following […]
(§5) Where ATC= Absorbance of treated cells and AC= Absorbance of control. […]
(§6) used as positive control in the assay. […]

[2] = tested on: MCF-7 (breast cancer cell line); experiment: Antiproliferative MTT assay, MCF-7; format: cell-based; conditions: Homo sapiens, MCF7; MCF-7, MTT; read-out: Antiproliferative activity IC50 ± SEM, MCF-7
Method: as §1, §2, §3, §4, §5, §6

[3] = tested on: Panc-1 (pancreatic cancer cell line); experiment: Antiproliferative MTT assay, Panc-1; format: cell-based; conditions: Homo sapiens; Panc-1, MTT; read-out: Antiproliferative activity IC50 ± SEM, Panc-1
Method: as §1, §2, §3, §4, §5, §6

[4] = tested on: HT-29 (colon cancer cell line); experiment: Antiproliferative MTT assay, HT-29; format: cell-based; conditions: Homo sapiens; HT-29, MTT; read-out: Antiproliferative activity IC50 ± SEM, HT-29
Method: as §1, §2, §3, §4, §5, §6

[5] = tested on: four human cancer cell lines (Panc-1, MCF-7, HT-29, A-549); experiment: Antiproliferative MTT assay, average (GI50) over the four cancer cell lines; format: cell-based; conditions: Homo sapiens; average of IC50 versus A-549, MCF-7, Panc-1, HT-29
Method: The average (GI50) versus the four cancer cell lines was chosen for ease of manipulation.
as §1, §2, §3, §4, §5, §6

Human CDK2/A2 = Human CDK2/A2 (Homo sapiens, UniProt P24941); experiment: CDK2 inhibitory assay
Method: Protein Kinase Assays. Human CDK2/A2 was purchased from New England Biolabs IC50 values for CDK2/A were determined according to the supplier’s instructions

`NC(=NOC(=O)/C=C/C=C/c1ccc2c(c1)OCO2)c1ccc(Br)cc1` [VIc, N'-{[(2E,4E)-5-(2H-1,3-Benzodioxol-5-yl)penta-2,4-dienoyl]oxy}-4-bromobenzene-1-carboximidamide] showed an IC50 [1] of 0.045 ± 0.005 µM, an IC50 [2] of 0.047 ± 0.005 µM and an IC50 [3] of 0.053 ± 0.005 µM. The IC50 [4] was 0.055 ± 0.005 µM, the GI50 [5] was 0.05 µM and the melting point was 159 to 161 °C. For the same molecule, the IC50 (Human CDK2/A2) was 0.023 ± 0.002 µM.
Molecule `NC(=NOC(=O)/C=C/C=C/c1ccc2c(c1)OCO2)c1ccccc1Cl` [VIf, N'-{[(2E,4E)-5-(2H-1,3-benzodioxol-5-yl)penta-2,4-dienoyl]oxy}-2-chlorobenzene-1-carboximidamide] has an IC50 [1] of 0.041 ± 0.004 µM, an IC50 [2] of 0.043 ± 0.004 µM and an IC50 [3] of 0.045 ± 0.004 µM. It also gave an IC50 [4] of 0.047 ± 0.004 µM, a GI50 [5] of 0.044 µM and a melting point of 165 to 167 °C. For the same molecule, the IC50 (Human CDK2/A2) was 0.021 ± 0.002 µM.
`N/C(=N/OC(=O)/C=C/C=C/c1ccc2c(c1)OCO2)c1ccc2c(c1)OCO2` [VIk] showed an IC50 [1] of 0.032 ± 0.003 µM, an IC50 [2] of 0.035 ± 0.003 µM and an IC50 [3] of 0.036 ± 0.003 µM. The IC50 [4] was 0.038 ± 0.003 µM, the GI50 [5] was 0.035 µM and the IC50 (Human CDK2/A2) was 0.012 ± 0.002 µM. For the same molecule, the “CDK2 potency relative to the reference dinaciclib (more potent)” value (Human CDK2/A2; ratio of IC50 values) was 1.5 fold.

— article PMC9721426, “Novel piperine-carboximidamide hybrids: design, synthesis, and antiproliferative activity via a multi-targeted inhibitory pathway” (Journal of Enzyme Inhibition and Medicinal Chemistry, 2022)
